These results are taken from article doi:10.1101/2021.05.03.442520v1 (biorxiv, 2021).

A word on the inhibition: it is the relative decrease from the control value, in per cent.

The target of this experiment is TMPRSS2 (Homo sapiens, UniProt O15393). The experiment can be described thus: fluorogenic pericellular protease assay, transfected Vero E6 cells. Type of experiment: cell-based. The note with it: Vero C1008, read-out: % inhibition at 10 nM.
TMPRSS2, sequence (O15393 whole entry): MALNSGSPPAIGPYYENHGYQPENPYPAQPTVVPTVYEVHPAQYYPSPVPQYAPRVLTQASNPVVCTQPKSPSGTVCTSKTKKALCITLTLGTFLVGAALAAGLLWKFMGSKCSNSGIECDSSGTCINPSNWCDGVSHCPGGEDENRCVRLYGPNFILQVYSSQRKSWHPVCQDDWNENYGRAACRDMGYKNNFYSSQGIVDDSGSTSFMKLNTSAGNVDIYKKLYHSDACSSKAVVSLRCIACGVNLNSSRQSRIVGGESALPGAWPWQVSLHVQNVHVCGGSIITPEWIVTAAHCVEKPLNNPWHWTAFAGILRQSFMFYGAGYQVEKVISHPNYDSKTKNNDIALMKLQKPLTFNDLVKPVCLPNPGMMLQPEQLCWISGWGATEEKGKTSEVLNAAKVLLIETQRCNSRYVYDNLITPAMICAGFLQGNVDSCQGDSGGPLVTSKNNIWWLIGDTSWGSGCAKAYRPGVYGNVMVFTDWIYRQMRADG

Turning to `N=C(N)NCCC[C@H](NC(=O)[C@H](Cc1ccccc1)NC(=O)[C@H](CCC(N)=O)NC(=N)N)C(=O)c1nc2ccccc2s1` [N-1296], the inhibition at 0.01 µM worked out at 16%.
As for `N=C(N)NCCCCC(=O)N[C@@H](CCC(N)=O)C(=O)N[C@@H](CC1CCCCC1)C(=O)N[C@@H](CCCNC(=N)N)C(=O)c1nc2ccccc2s1` [N-0678], the inhibition at 0.01 µM was 5%.
